Data reported in patent publication US7205308B2, “Trisubstituted 7-aminopyrazolopyrimidines as cyclin dependent kinase inhibitors” (Schering Corporation, priority 2002, dated 2007).
Values joined by “and” are separate entries in the source; they are usually repeats but may differ in a detail not shown here. Equal entries are not always repeated.

Experiments:
[1] = target: T1, Cyclin E/CDK2 (Homo sapiens, UniProt P24941); test: Cyclin E/CDK2 in vitro kinase assay (SPA, 33P-ATP, biotinylated Histone H1 peptide); assay type: biochemical; conditions: recombinant cyclin E/CDK2 from SF9 cells; 8 point serial dilutions in duplicate; 1 hour at room temperature
T1 construct: The expressed protein was approximately 34 kDa in size; made in house; host or cells: SF9 insect cells (baculovirus co-infection)

SMILES	melting point	IC50 [1]
CS(=O)(=O)c1ccc(Nc2cc(-c3ccccc3)nc3c(C4CC4)cnn23)cc1	210 to 211 °C	
CC(C)c1cnn2c(Nc3ccc(S(C)(=O)=O)cc3)cc(-c3ccccc3)nc12	213 to 216 °C	
CS(=O)(=O)c1ccc(Nc2cc(-c3ccc(Cl)cc3)nc3c(Br)cnn23)cc1	249 to 253 °C	
CCc1cnn2c(Nc3ccc(S(C)(=O)=O)cc3)cc(-c3ccccc3)nc12	192 to 194 °C	
CS(=O)(=O)c1ccc(Nc2cc(-c3ccccc3)nc3c(Br)cnn23)cc1	202 to 204 °C	
O=S(=O)(O)c1cccc(Nc2cc(-c3ccccc3)nc3c(Br)cnn23)c1	206 to 208 °C	
O=S(=O)(O)c1ccc(Nc2cc(-c3ccccc3F)nc3c(Br)cnn23)cc1	> 250 °C	
CCc1cnn2c(Nc3ccc(S(=O)(=O)O)cc3)cc(-c3ccccc3)nc12	> 250 °C	
CN(C)S(=O)(=O)c1ccc(Nc2cc(-c3ccccc3)nc3c(Br)cnn23)cc1	237 to 239 °C	
CC(C)(C)OC(=O)NCCNS(=O)(=O)c1ccc(Nc2cc(-c3ccccc3)nc3c(Br)cnn23)cc1	195 to 197 °C	
O=S(=O)(NCc1ccccc1)c1ccc(Nc2cc(-c3ccccc3)nc3c(Br)cnn23)cc1	216 to 218 °C	
O=S(=O)(NCCCO)c1ccc(Nc2cc(-c3ccccc3)nc3c(Br)cnn23)cc1	165 to 168 °C	
O=S(=O)(Nc1ccccc1)c1ccc(Nc2cc(-c3ccccc3)nc3c(Br)cnn23)cc1	147 to 150 °C	
CC(C)(C)OC(=O)N1CCC(NS(=O)(=O)c2ccc(Nc3cc(-c4ccccc4)nc4c(Br)cnn34)cc2)CC1	127 to 129 °C	
CS(=O)(=O)c1ccc(Nc2cc(-c3ccccc3F)nc3c(Cl)cnn23)cc1	232 to 235 °C	
O=S(=O)(NC1CCCC1)c1ccc(Nc2cc(-c3ccccc3)nc3c(Br)cnn23)cc1	> 200 °C (dec.)	
CC(CO)NS(=O)(=O)c1ccc(Nc2cc(-c3ccccc3)nc3c(Br)cnn23)cc1 (stereo not shown)	> 200 °C (dec.)	
O=S(=O)(NCc1ccccn1)c1ccc(Nc2cc(-c3ccccc3)nc3c(Br)cnn23)cc1	101 to 103 °C	
O=S(=O)(NCc1cccnc1)c1ccc(Nc2cc(-c3ccccc3)nc3c(Br)cnn23)cc1	110 to 114 °C	
O=S(=O)(O)CCNS(=O)(=O)c1ccc(Nc2cc(-c3ccccc3)nc3c(Br)cnn23)cc1	206 to 208 °C	
CS(=O)(=O)c1ccc(Nc2cc(-c3ccccc3F)nc3c(Br)cnn23)cc1	117 to 118 °C	
CC(CO)(CO)NS(=O)(=O)c1ccc(Nc2cc(-c3ccccc3)nc3c(Br)cnn23)cc1	98 to 100 °C	
COC(=O)CNS(=O)(=O)c1ccc(Nc2cc(-c3ccccc3)nc3c(Br)cnn23)cc1	182 to 184 °C	
CN1CCN(S(=O)(=O)c2ccc(Nc3cc(-c4ccccc4)nc4c(Br)cnn34)cc2)CC1	228 to 230 °C	

SMILES	melting point	IC50 [1]
O=S(=O)(N[C@@H](CO)Cc1ccccc1)c1ccc(Nc2cc(-c3ccccc3)nc3c(Br)cnn23)cc1	108 to 110 °C	
O=S(=O)(N[C@H](CO)Cc1ccccc1)c1ccc(Nc2cc(-c3ccccc3)nc3c(Br)cnn23)cc1	102 to 105 °C	
CS(=O)(=O)c1ccc(Nc2cc(-c3cccc(C(F)(F)F)c3)nc3c(Br)cnn23)cc1	210 to 212 °C	
O=S(=O)(NCCO)c1cccc(Nc2cc(-c3ccccc3)nc3c(Br)cnn23)c1	87 to 90 °C	
CC(O)CNS(=O)(=O)c1cccc(Nc2cc(-c3ccccc3)nc3c(Br)cnn23)c1 (stereo not shown)	115 to 120 °C	
CCc1cnn2c(Nc3ccc(S(=O)(=O)NCCN(C)C)cc3)cc(-c3ccccc3)nc12	99 to 101 °C	
CC(C)c1cc(Nc2ccc(S(C)(=O)=O)cc2)n2ncc(Br)c2n1	214 to 215 °C	
CC(C)c1cc(Nc2ccccc2)n2ncc(Br)c2n1	166 to 168 °C	
CC(C)(C)c1cc(Nc2ccccc2)n2ncc(Br)c2n1	144 °C	
CS(=O)(=O)c1ccc(Nc2cc(-c3ccccc3Cl)nc3c(Br)cnn23)cc1 [Example 1]		400 nM and 1400 nM
Clc1ccccc1-c1cc(Nc2ccccc2)n2ncc(Br)c2n1 [Example 2]		510 nM
Fc1ccccc1-c1cc(Nc2ccccc2)n2ncc(Cl)c2n1 [Example 3]	112 to 116 °C	42 nM
O=S(=O)(O)c1ccc(Nc2cc(-c3ccccc3)nc3c(Br)cnn23)cc1 [Example 22]	> 250 °C	82 nM
CCNS(=O)(=O)c1ccc(Nc2cc(-c3ccccc3)nc3c(Br)cnn23)cc1 [Example 28]	101 to 104 °C	80 nM
O=S(=O)(NCCO)c1ccc(Nc2cc(-c3ccccc3)nc3c(Br)cnn23)cc1 [Example 30]	175 to 177 °C	29 nM
NS(=O)(=O)c1ccc(Nc2cc(-c3ccccc3)nc3c(Br)cnn23)cc1 [Example 31]	206 to 208 °C	45 nM
CNS(=O)(=O)c1ccc(Nc2cc(-c3ccccc3)nc3c(Br)cnn23)cc1 [Example 32]	231 to 233 °C	57 nM
O=S(=O)(Nc1ccncc1)c1ccc(Nc2cc(-c3ccccc3)nc3c(Br)cnn23)cc1 [Example 38]	192 to 195 °C	40 nM
COCCNS(=O)(=O)c1ccc(Nc2cc(-c3ccccc3)nc3c(Br)cnn23)cc1 [Example 42]	172 to 173 °C	70 nM
CN(C)CCNS(=O)(=O)c1ccc(Nc2cc(-c3ccccc3)nc3c(Br)cnn23)cc1 [Example 43]	165 to 167 °C	34 nM
O=S(=O)(c1ccc(Nc2cc(-c3ccccc3)nc3c(Br)cnn23)cc1)N(CCO)CCO [Example 47]	90 to 92 °C	34 nM
CN(C)CC(C)(C)CNS(=O)(=O)c1ccc(Nc2cc(-c3ccccc3)nc3c(Br)cnn23)cc1 [Example 48]	163 to 165 °C	25 nM
O=S(=O)(NC(CO)CO)c1ccc(Nc2cc(-c3ccccc3)nc3c(Br)cnn23)cc1 [Example 50]	122 to 124 °C	30 nM
CN(C)CCCNS(=O)(=O)c1ccc(Nc2cc(-c3ccccc3)nc3c(Br)cnn23)cc1 [Example 53]	78 to 80 °C	11 nM
